Source: patent publication US7498311B2, “Treatment of migraine” (New England Medical Center Hospitals, Inc., priority 1995, dated 2009)

Test system: migraine episodes in epileptic patients
Experiment: Anti-migraine activity in epileptic patients (two case reports, daily topiramate)
Assay type: in vivo, human
Excerpt: Patient 1, an epileptic, suffered from complex partial seizures and frequent episodes of migraine, some of which were temporally related to their seizures. Seizures and migraines were incompletely responsive to large doses of calcium channel blockers added to their anti-epileptic drug regimen. Patient 2 suffered from complex partial seizures and frequent, severe migraine episodes, requiring regular use of sumatripan. Patient 1 took topiramate daily for 18 months. Patient 2 took topiramate daily for 10 months.

## CC1(C)O[C@@H]2[C@@H](CO[C@@]3(COS(N)(=O)=O)OC(C)(C)O[C@@H]23)O1 [topiramate, 2,3:4,5-bis-O-(1-methylethydine)-β-D-fructopyranose sulfamate]
Patient 1 (epileptic, complex partial seizures, frequent migraine), 600 mg/d
  improvement in migrainous episodes: substantial improvement in migrainous episodes
Patient 1, after taking 800 mg/d, verapamil, nimodipine and cimetidine withdrawn
  migrainous episodes: had not experienced any migrainous episodes
Patient 1, daily for 18 months
  adverse effects: did not experience any adverse effects
Patient 1, daily for 18 months, except for one migrainous aura, all calcium channel blockers withdrawn
  control of migraine episodes: nearly completely controlled
Patient 2 (epileptic, complex partial seizures, frequent severe migraine), 400 mg/d
  improvement of migraine headaches: substantial improvement of their migraine headaches
Patient 2, after taking 200 mg/d
  frequency of migraine headaches: substantially less frequent migraine headaches
Patient 2, daily for 10 months
  migraine status after the sixth month: migraine-free thereafter until the tenth month
Patient 2, during brief cessation of their propanolol therapy
  migraine episodes in the fifth and sixth months of use: several episodes of basilar migraine without headache
Patient 2, once taking 300 mg/d
  use of sumatriptan rescue medication: eliminating the average use of 2 administrations of sumatriptan per week
